# Experimental data from US11376230B2 (priority 2011, dated 2022).
# Like-named read-outs stand apart in the source and are kept apart here.
# What was measured:
# [1] = test system: P. aeruginosa biofilms; conditions: for Average CFU: 24 h treatment of 24 h old biofilm
# Description: (§1) The wild-type P. aeruginosa PAO1 used for the planktonic and biofilm experiments was obtained from the Pseudomonas Genetic Stock Center (www.pseudomonas.med.ecu.edu, strain PAO0001). The wild-type S. aureus 8325-4, used for planktonic and biofilm experiments was described by Novick, R. P. 1967. The following bacteria were obtained from the Department of Clinical Microbiology, Copenhagen University Hospital, Denmark: E. coli (wild type and clinical ESBL producing strains), S. aureus (wild type and clinical MRSA strains) and Klebsiella pneumoniae (clinical ESBL producing strain).
# For plating, Luria broth (LB) medium mix with 2.0% agar was used. For all experiments including bacterial biofilms, AB minimal medium supplemented with glucose was used except if different is mentioned. AB minimal medium consists of: A standard buffer system consisting of (NH4)2SO4 (15.1 mM), Na2HPO4.2H2O (33.7 mM) and KH2PO4 (22.0 mM. NaCl (0.051 M), MgCl2 (1 mM), CaCl2 (0.1 mM), and trace metals (100 μl/liter). The trace metal solution contained CaSa4.2H2O (200 mg/liter), FeSO4.7H2O (200 mg/liter), MnSO4.H2O (20 mg/liter), CuSO4.5H2O (20 mg/liter), ZnSO4.7H2O (20 mg/liter), CoSO4.7H2O (10 mg/liter), NaMoO4.H2O, and H3BO3 (5 mg/liter).
# (§2) Two types of biofilm setups were used, micropore filter assay and a microtitter plate assay: • The microtitter plate assay is based on biofilms growing in microtiter dishes with AB minimal medium containing 0.3 mM glucose as described by O′ toole et al (1999). • The Micro-pore assay is based on biofilms growing on a micropore filter on AB minimal agar plates. The micropore filters are placed on top of an AB minimal agar plate. Bacteria are propagated on the micro-pore filters as spots of 20 μl bacterial suspension and incubated at 37° C. For a biofilm to develop the filters were transferred to a fresh AB minimal agar plate once after 24 hours. The biofilm were mature and ready for use after 48 hours incubation in total, at 37° C. Planktonic cultures were grown in shake flasks at 37° C. The microtitter plate assay for biofilm tolerance to sodium diacetate was assessed by exchanging the AB minimal medium of 24 h old biofilms with AB minimal medium supplemented with different concentrations of sodium diacetate.
# The antimicrobial effect was determined by plating the treated and non-treated biofilm. To ensure complete removal of all adhering bacteria the wells of the microtitter plate were washed mechanically.
# [2] = test system: E. coli (wild type and clinical ESBL producing strains) biofilm
# Description: as §1, §2
# (§3) To elucidate the efficacy of dry sodium diacetate on microbial biofilms of P. aeruginosa. Bacteria were propagated on a micropore filter for biofilm formation. The Micro-pore filters were placed on top of an LB-agar plate. Bacteria were spread on the micro-pore filters as spots and incubated at 37° C. For a biofilm to develop the filters were transferred to a fresh LB-agar plate once after 24 hours. The biofilm were mature and ready for use after 48 hours incubation in total, at 37° C.
# (§4) After 48 hours NaHAc2 was added on top of the biofilm spot, either directly or between two pieces of gauze. The control was plain gauze. All treatments were incubated for 24 hours. The effect was evaluated by replication of the micro pore filter after treatment. The endpoint was growth or no growth of bacteria after the treatment.
# [3] = test system: Klebsiella pneumoniae (clinical ESBL producing strain) biofilm; conditions: dry sodium diacetate, same method as example 3
# Description: as §1, §2, §3, §4
# [4] = test system: P. aeruginosa mature biofilm
# Description: as §1, §2, §3, §4
# [5] = test system: S. aureus (wild type and clinical MRSA strains) biofilm; conditions: dry sodium diacetate, same method as example 3
# Description: as §1, §2, §3, §4
# [6] = test system: bacterially infected chronic wounds; conditions: dressings with 0.2 mg/cm^2 or less on surface, with negative pressure wound therapy; initial results
# Protocol: To elucidate the clinical potential of sodium diacetate in wound care human clinical trials are being performed in a hospital setting to test the efficacy of dressings incorporating sodium diacetate on bacterially infected chronic wounds.
# Dressings are used employing 0.2 mg/cm^2 or less of sodium diacetate on the surface of the dressing material. Incorporating smaller amounts of sodium diacetate is tested incrementally. Initial trials are performed using negative pressure wound therapy in combination with dressings incorporating sodium diacetate as described herein. Trials are performed on test subjects having chronic wounds due to infection with for example P. aeruginosa and with reduced immune responses due to for example, drug abuse, diabetes, or obesity.
# [7] = 24 hours old static biofilms in AB minimal medium
smiles,measurement,setting,value
CC(=O)O.CC(=O)[O-].[Na+] [sodium diacetate],Average CFU,[1]; 0.25% NaHAc2 (w/v),1.15E+09 CFU
same,Average CFU,[1]; 0.50% NaHAc2 (w/v),3.12E+08 CFU
same,Average CFU,[1]; 0.75% NaHAc2 (w/v),9.63E+07 CFU
same,Average CFU,[1]; 1.00% NaHAc2 (w/v),8.05E+06 CFU
same,Average CFU,[1]; 1.25% NaHAc2 (w/v),1.96E+05 CFU
same,Average CFU,[1]; 1.50% NaHAc2 (w/v),1.98E+03 CFU
same,Average CFU,[1]; 1.75% NaHAc2 (w/v),0 CFU
same,Average CFU,[1]; 2.00% NaHAc2 (w/v),0 CFU
same,Average CFU,[1]; 2.25% NaHAc2 (w/v),0 CFU
same,Average CFU,[1]; 2.50% NaHAc2 (w/v),0 CFU
same,Average CFU,[1]; 2.75% NaHAc2 (w/v),0 CFU
same,Average CFU,[1]; 3% NaHAc2 (w/v),0 CFU
same,concentration at which an effect of the salt is already seen,[1]; [7],0.25 % (W/V)
same,concentration giving complete killing of the biofilm bacteria,[1]; [7],1.75 % (W/V)
same,concentration giving complete killing of the biofilm bacteria,"[1]; 24 hours old static biofilms in AB minimal medium, listed as NaHAc2",≥ 1.75 % (W/V)
same,killing of biofilm,[1]; even the lowest concentrations of NaHAc2,partial killing
same,growth or no growth of bacteria after treatment,[2]; between gauze soaked in wounds buffer (FIG. 4),complete eradication
same,growth or no growth of bacteria after treatment,[2]; dry between gauze (FIG. 4),complete eradication
same,eradication of biofilm infection,"[2]; dry sodium diacetate, same method as example 3, wild type and clinical ESBL producing strains",completely eradicated
same,growth or no growth of bacteria after treatment,[2]; foam soaked in wounds buffer (FIG. 4),complete eradication
same,eradication of biofilm infection,[3],completely eradicated
same,growth or no growth of bacteria after treatment,"[4]; NaHAc2 on top of 48 h biofilm spot, directly or between two pieces of gauze, 24 hours",completely eradicates
same,growth or no growth of bacteria after treatment,[4]; treatment 1: dry between gauze,complete eradication
same,growth or no growth of bacteria after treatment,[4]; treatment 2: between gauze soaked in wounds buffer,complete eradication
same,growth or no growth of bacteria after treatment,[4]; treatment 3: foam soaked in wounds buffer,complete eradication
same,growth or no growth of bacteria after treatment,[4]; treatment 4: dry,complete eradication
same,eradication of biofilm infection,[5],completely eradicated
same,infections of chronic wounds,[6],eradicated
same,wound healing,[6],accelerated
same,Media pH,0.50% NaHAc2 (w/v) in AB minimal media,5.78
same,Media pH,0.75% NaHAc2 (w/v) in AB minimal media,5.31
same,Media pH,1.00% NaHAc2 (w/v) in AB minimal media,5.09
same,Media pH,1.25% NaHAc2 (w/v) in AB minimal media,4.99
same,Media pH,1.50% NaHAc2 (w/v) in AB minimal media,4.91
same,Media pH,1.75% NaHAc2 (w/v) in AB minimal media,4.86
same,Media pH,2.00% NaHAc2 (w/v) in AB minimal media,4.83
same,Media pH,2.25% NaHAc2 (w/v) in AB minimal media,4.80
same,Media pH,2.50% NaHAc2 (w/v) in AB minimal media,4.78
same,Media pH,2.75% NaHAc2 (w/v) in AB minimal media,4.76
same,Media pH,3.00% NaHAc2 (w/v) in AB minimal media,4.74
same,concentration at which the pH value levels out,AB minimal media (FIG. 1),around 1.5 g/L
same,pH of aqueous AB minimal media,at 3 g/L of sodium diacetate (FIG. 1),~4.75
